In ChEMBL document CHEMBL5356973 (J Med Chem, 2023):
Calls of active or inactive are those of the source. The calls are words filed in the database; no cut-off is given here.

Assays:
[1] = target: T1, Mu-type opioid receptor (Homo sapiens, UniProt P35372); experiment: Agonist activity at MOR (unknown origin) transfected in CHO cells co-expressing Galphaq15 assessed as increase in calcium mobilization by Fluo-4AM dye based assay; assay type: functional, cell-based
[2] = target: T1, Mu-type opioid receptor; experiment: Agonist activity at MOR (unknown origin) transfected in CHO cells co-expressing Galphaq15 assessed as increase in calcium mobilization by measuring maximal efficacy by Fluo-4AM dye based assay relative to control; assay type: functional, cell-based; conditions: filed as agonist
[3] = target: T2, Kappa-type opioid receptor (Homo sapiens, UniProt P41145); experiment: Agonist activity at KOR (unknown origin) transfected in CHO cells co-expressing Galphaq15 assessed as increase in calcium mobilization by Fluo-4AM dye based assay; assay type: functional, cell-based
T2 sequence (P41145 whole entry): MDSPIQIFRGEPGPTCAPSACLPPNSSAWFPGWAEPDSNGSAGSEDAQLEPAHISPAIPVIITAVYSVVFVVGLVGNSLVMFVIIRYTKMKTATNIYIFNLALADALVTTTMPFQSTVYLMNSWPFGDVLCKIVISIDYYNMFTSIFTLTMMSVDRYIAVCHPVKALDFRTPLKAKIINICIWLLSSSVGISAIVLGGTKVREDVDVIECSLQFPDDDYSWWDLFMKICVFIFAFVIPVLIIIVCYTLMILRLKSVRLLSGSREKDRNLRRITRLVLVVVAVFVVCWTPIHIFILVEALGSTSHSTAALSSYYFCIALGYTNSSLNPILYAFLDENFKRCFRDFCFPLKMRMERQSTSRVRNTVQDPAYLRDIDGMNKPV

[4] = target: T2, Kappa-type opioid receptor; experiment: Agonist activity at KOR (unknown origin) transfected in CHO cells co-expressing Galphaq15 assessed as increase in calcium mobilization by measuring maximal efficacy by Fluo-4AM dye based assay relative to control; assay type: functional, cell-based; conditions: filed as agonist
[5] = target: T3, Delta-type opioid receptor (Homo sapiens, UniProt P41143); experiment: Agonist activity at DOR (unknown origin) transfected in CHO cells co-expressing Galphaq15 assessed as increase in calcium mobilization by Fluo-4AM dye based assay; assay type: functional, cell-based
T3 sequence (P41143 whole entry): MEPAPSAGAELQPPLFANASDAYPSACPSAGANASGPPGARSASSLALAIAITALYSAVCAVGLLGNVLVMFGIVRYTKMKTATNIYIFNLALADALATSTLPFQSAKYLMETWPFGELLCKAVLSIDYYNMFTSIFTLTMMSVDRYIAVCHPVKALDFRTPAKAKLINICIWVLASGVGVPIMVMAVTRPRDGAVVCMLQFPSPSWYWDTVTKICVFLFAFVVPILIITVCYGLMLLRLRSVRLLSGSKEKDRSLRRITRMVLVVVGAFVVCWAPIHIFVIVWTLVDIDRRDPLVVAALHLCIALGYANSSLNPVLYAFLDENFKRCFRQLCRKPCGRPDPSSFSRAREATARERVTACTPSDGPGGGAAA

[6] = target: T3, Delta-type opioid receptor; experiment: Agonist activity at DOR (unknown origin) transfected in CHO cells co-expressing Galphaq15 assessed as increase in calcium mobilization by measuring maximal efficacy by Fluo-4AM dye based assay relative to control; assay type: functional, cell-based; conditions: filed as agonist
[7] = Agonist activity at NPFF1R (unknown origin) transfected in CHO cells co-expressing Galphaq15 assessed as increase in calcium mobilization by measuring maximal efficacy by Fluo-4AM dye based assay relative to control; assay type: functional, cell-based; conditions: Homo sapiens, filed as agonist
[8] = target: T4, Neuropeptide FF receptor 2 (Homo sapiens, UniProt Q9Y5X5); experiment: Agonist activity at NPFF2R (unknown origin) transfected in HEK293 cells co-expressing Galphaq15 assessed as increase in calcium mobilization by Fluo-4AM dye based assay; assay type: functional, cell-based
T4 sequence (Q9Y5X5 whole entry): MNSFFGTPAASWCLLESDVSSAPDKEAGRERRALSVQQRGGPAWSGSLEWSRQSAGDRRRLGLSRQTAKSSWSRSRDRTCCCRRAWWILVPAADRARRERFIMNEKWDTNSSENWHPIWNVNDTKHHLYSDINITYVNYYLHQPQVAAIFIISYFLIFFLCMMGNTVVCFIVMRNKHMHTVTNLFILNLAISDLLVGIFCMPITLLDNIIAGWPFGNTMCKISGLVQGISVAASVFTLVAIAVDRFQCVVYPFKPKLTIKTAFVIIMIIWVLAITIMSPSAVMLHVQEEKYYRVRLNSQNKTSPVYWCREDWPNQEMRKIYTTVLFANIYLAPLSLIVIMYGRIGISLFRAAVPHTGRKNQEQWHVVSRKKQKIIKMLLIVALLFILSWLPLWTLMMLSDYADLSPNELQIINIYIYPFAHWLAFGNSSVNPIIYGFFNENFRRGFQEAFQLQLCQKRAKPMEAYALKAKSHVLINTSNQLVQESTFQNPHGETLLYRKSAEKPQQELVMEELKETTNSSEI

[9] = target: T4, Neuropeptide FF receptor 2; experiment: Agonist activity at NPFF2R (unknown origin) transfected in HEK293 cells co-expressing Galphaq15 assessed as increase in calcium mobilization by measuring maximal efficacy by Fluo-4AM dye based assay relative to control; assay type: functional, cell-based; conditions: filed as agonist
[10] = Metabolic stability in mouse plasma assessed as degradation half life at 10 mM measured upto 480 mins by RP-HPLC analysis; assay type: ADME, cell-free
[11] = Metabolic stability in mouse brain homogenate assessed as degradation half life at 10 mM measured upto 480 mins by RP-HPLC analysis; assay type: ADME, tissue-based
[12] = system: Mus musculus; experiment: Antinociceptive activity in Kunming mouse assessed as changes in tail flick latency by measuring maximal possible effect at 8.8 nmol/kg, sc measured after 20 mins by tail-flick test; assay type: functional
[13] = system: Mus musculus; experiment: Antinociceptive activity in Kunming mouse assessed as changes in tail flick latency by measuring maximal possible effect at 8.8 nmol/kg, sc measured after 30 mins by tail-flick test; assay type: functional; conditions: 0.5 h
[14] = system: Mus musculus; experiment: Antinociceptive activity in Kunming mouse assessed as changes in tail flick latency by measuring maximal possible effect at 8.8 nmol/kg, sc measured after 60 mins by tail-flick test; assay type: functional; conditions: 1 h
[15] = system: Mus musculus; experiment: Antinociceptive activity in Kunming mouse assessed as changes in tail flick latency by measuring maximal possible effect at 8.8 nmol/kg, sc measured after 120 mins by tail-flick test; assay type: functional; conditions: 2 h
[16] = system: Mus musculus; experiment: Antinociceptive activity in Kunming mouse assessed as changes in tail flick latency by measuring maximal possible effect at 8.8 nmol/kg, sc measured after 240 mins by tail-flick test; assay type: functional; conditions: 4 h
[17] = system: Mus musculus; experiment: Antinociceptive activity in Kunming mouse assessed as changes in tail flick latency by measuring time duration of antinociceptive effect at 8.8 nmol/kg, sc by tail-flick test; assay type: functional
[18] = system: Mus musculus; experiment: Antinociceptive activity in Kunming mouse assessed as changes in tail flick latency at 8.8 nmol/kg, sc pretreated with naloxone methiodide at 5 nmol, icv for 10 mins followed by compound addition and measured for 360 mins by tail-flick test; assay type: functional, organism-based
[19] = system: Mus musculus; experiment: Antinociceptive activity in Kunming mouse assessed as changes in tail flick latency by measuring maximal possible effect at 26.1 nmol/kg, sc measured after 20 mins by tail-flick test; assay type: functional
[20] = system: Mus musculus; experiment: Antinociceptive activity in Kunming mouse assessed as changes in tail flick latency by measuring maximal possible effect at 26.1 nmol/kg, sc measured after 30 mins by tail-flick test; assay type: functional; conditions: 0.5 h
[21] = system: Mus musculus; experiment: Antinociceptive activity in Kunming mouse assessed as changes in tail flick latency by measuring maximal possible effect at 26.1 nmol/kg, sc measured after 60 mins by tail-flick test; assay type: functional; conditions: 1 h
[22] = system: Mus musculus; experiment: Antinociceptive activity in Kunming mouse assessed as changes in tail flick latency by measuring maximal possible effect at 26.1 nmol/kg, sc measured after 120 mins by tail-flick test; assay type: functional; conditions: 2 h
[23] = system: Mus musculus; experiment: Antinociceptive activity in Kunming mouse assessed as changes in tail flick latency by measuring maximal possible effect at 26.1 nmol/kg, sc measured after 240 mins by tail-flick test; assay type: functional; conditions: 4 h
[24] = system: Mus musculus; experiment: Antinociceptive activity in Kunming mouse assessed as changes in tail flick latency by measuring time duration of antinociceptive effect at 26.1 nmol/kg, sc by tail-flick test; assay type: functional
[25] = system: Mus musculus; experiment: Antinociceptive activity in Kunming mouse assessed as changes in tail flick latency at 26.1 nmol/kg, sc pretreated with naloxone methiodide at 5 nmol, icv for 10 mins followed by compound addition and measured for 360 mins by tail-flick test; assay type: functional, organism-based

T1 sequence (P35372 whole entry): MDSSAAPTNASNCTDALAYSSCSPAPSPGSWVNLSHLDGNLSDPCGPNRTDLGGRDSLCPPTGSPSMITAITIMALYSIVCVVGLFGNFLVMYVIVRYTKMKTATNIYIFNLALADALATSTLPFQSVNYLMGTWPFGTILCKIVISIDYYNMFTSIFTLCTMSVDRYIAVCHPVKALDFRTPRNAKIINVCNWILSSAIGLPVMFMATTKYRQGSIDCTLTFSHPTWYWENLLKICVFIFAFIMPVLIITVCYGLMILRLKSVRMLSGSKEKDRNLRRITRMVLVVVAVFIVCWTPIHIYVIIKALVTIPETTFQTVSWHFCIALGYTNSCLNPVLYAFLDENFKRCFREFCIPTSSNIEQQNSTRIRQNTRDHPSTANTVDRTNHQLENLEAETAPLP

Row | SMILES | EC50 [1] [nM] | Emax [2] [%] | EC50 [3] [nM] | Emax [4] [%] | EC50 [5] [nM] | Emax [6] [%] | Emax [7] [%] | EC50 [8] [nM] | Emax [9] [%] | half-life at 10000 µM [10] [h] | half-life at 10000 µM [11] [h] | MPE [12] [%] | MPE [13] [%] | MPE [14] [%] | MPE [15] [%] | MPE [16] [%] | Time [17] [min] | Activity [18] | MPE [19] [%] | MPE [20] [%] | other results
1 | CN1C(=O)CNC(=O)[C@@H](N[C@@H](Cc2ccc(O)cc2)C(=O)O)C/C=C/CCCC[C@H](C(=O)N2CCC[C@H]2C(=O)N[C@@H](CCC(N)=O)C(=O)N[C@@H](CCCNC(=N)N)C(=O)N[C@@H](Cc2ccccc2)C(N)=O)NC(=O)[C@@H]1Cc1ccccc1 | 2900 | 81 | 1230 | 56.1 | 8920 | 99.4 | 124 | 3760 | 40.9 | 0.13 | 1.47 | 92.8 | 93.6 | 79 | 71.5 | 41.6 | 360 | inactive | – | – | –
2 | CN1C(=O)CNC(=O)[C@H](N[C@@H](Cc2ccc(O)cc2)C(=O)O)CCCC/C=C/CC[C@@H](C(=O)N2CCC[C@H]2C(=O)N[C@@H](CCC(N)=O)C(=O)N[C@@H](CCCNC(=N)N)C(=O)N[C@@H](Cc2ccccc2)C(N)=O)NC(=O)[C@@H]1Cc1ccccc1 | 1.2 | 84.6 | 132 | 100 | 13.4 | 73.8 | 91.9 | 9770 | 125 | 1.01 | 2.26 | – | – | – | – | – | – | – | 91.9 | 92.1 | MPE [21]: 80.3%; MPE [22]: 69%; MPE [23]: 42.3%; Time [24]: 360 min; Activity [25]: inactive
3 | CN1C(=O)CNC(=O)[C@H](N[C@@H](Cc2ccc(O)cc2)C(=O)O)CCCC/C=C\CC[C@@H](C(=O)N2CCC[C@H]2C(=O)N[C@@H](CCC(N)=O)C(=O)N[C@@H](CCCNC(=N)N)C(=O)N[C@@H](Cc2ccccc2)C(N)=O)NC(=O)[C@@H]1Cc1ccccc1 | 92.3 | 109 | 503 | 128 | 58.2 | 97.5 | 105 | 1080 | 88.6 | 0.625 | 1.95 | – | – | – | – | – | – | – | 93 | 93.7 | MPE [21]: 77.4%; MPE [22]: 73.5%; MPE [23]: 36%; Time [24]: 360 min; Activity [25]: inactive
4 | CC(C)C[C@H](NC(=O)[C@@H](N)Cc1ccccc1)C(=O)N[C@@H](Cc1ccccc1)C(=O)N[C@@H](CCC(N)=O)C(=O)N1CCC[C@H]1C(=O)N[C@@H](CCC(N)=O)C(=O)N[C@@H](CCCN=C(N)N)C(=O)N[C@@H](Cc1ccccc1)C(N)=O | – | – | – | – | – | – | 97.9 | – | – | – | – | – | – | – | – | – | – | – | – | – | –
5 | CN1C(=O)CNC(=O)[C@H](N[C@@H](Cc2ccc(O)cc2)C(=O)O)CCC/C=C/CC[C@@H](C(=O)N2CCC[C@H]2C(=O)N[C@@H](CCC(N)=O)C(=O)N[C@@H](CCCNC(=N)N)C(=O)N[C@@H](Cc2ccccc2)C(N)=O)NC(=O)[C@@H]1Cc1ccccc1 | 7.6 | 102 | 273 | 96.4 | 23.9 | 98.2 | 91.8 | 3110 | 118 | 0.537 | 1.83 | 89.9 | 96.5 | 72.1 | 74.2 | 47.8 | 360 | inactive | – | – | –
